Results published in US11013696B2, “Lipids and lipid compositions for the delivery of active agents” (Novartis AG, priority 2013, dated 2021).

Tests used:
[1] = siRNA encapsulation in lipid nanoparticles (SYBR Gold); format: physicochemical; conditions: for % Encap.: FVII siRNA; for % encapsulation siRNA FVII: Table 2, FVII siRNA in LNP with the cationic lipid
In short: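 SYBR Gold fluorescence (ex 485/em 530 nm) of LNPs made by impinging-jet mixing of ethanolic lipids (cationic, cholesterol, optional DSPC, PEG/stealth lipid) with siRNA in citrate pH 4-6, siRNA:lipid ~0.05 wt/wt. Samples with and without Triton X-100 gave free and total siRNA for encapsulation efficiency.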

[2] = test system: human leptin; assay: Human leptin in mouse plasma (ELISA) after IV tail vein injection of encapsulated leptin mRNA; format: in vivo; conditions: hLeptin
Protocol: Human leptin in mouse plasma was measured by ELISA. Antibodies purchased from the R&D Systems duoset (Cat #DY398E, part #840279 for capture antibody and part #840280 for detection antibody) were reconstituted using PBS and titered, again using PBS. The capture antibody was coated at 4 ug/ml in 30 ul/well on a white Nunc® Maxisorp 384 well plate (Cat #460372). After an overnight incubation at room temperature the capture antibody was aspirated and the plate blocked for 2 hours at room temperature with 90 ul/well of KPL milk blocker (Cat #50-82-00). Once the incubation was completed the plate was aspirated and recombinant standards and samples were added to the plate at 30 ul/well for 2 hours at 37° C. while shaking at 600 rpm. Sample/standard dilutions were made using casein sample diluent. Washing/aspiration 3 times with 100 ul/well followed, using Teknova plate wash solution (Cat #P1192). Next, detection antibody was diluted using casein detection antibody diluent to 12.5 ng/ml and added at 30 ul/well for 2 hours room temperature. After this incubation, the plate was washed again and a solution of poly-streptavidin-HRP (Cat #21140) at a 1:1250 dilution in HRP dilution buffer was added to each well (30 ul/well) and incubated for 30 minutes room temperature. A final wash/aspiration removed the HRP solution and a chemiluminescent substrate was added at 30 ul/well (Cat #1859678 & 1859679). The plate was quickly read using a SpectramaxM5 plate reader with a 50 ms integration time. The dynamic range of the ELISA is from 100-2,000 […] (6.25-125 pM) of human leptin. The assay is applicable to plasma from mice, rats and cynomolgus monkeys.
Before the tail vein injection, mouse body weights were recorded and diet weighted, with mice grouped according to their body weights. Mice were prepared by warming them under a heating lamp for ˜2 minutes, with the mice about 12 inches from heat lamp. […]
On day 0, animals were weighed and sorted according to average body weight. Mice were dosed, and food intake (FI) was recorded, on each of days 1-7 and days 9, 11, and 16.

[3] = test system: human leptin; assay: Human leptin in mouse plasma (ELISA) after subcutaneous injection of encapsulated leptin mRNA; format: in vivo; conditions: hLeptin, 0.2 mpk

Compound	% Encap. [1]	% encapsulation siRNA FVII [1]	Expression of protein following IV injection of encapsulated mRNA ([2]; 0.2 mpk, ob/ob)	Expression of protein following SC injection of encapsulated mRNA ([3]; ob/ob)	Expression of protein following IV injection of encapsulated mRNA ([2]; 0.4mpk, C57)	Expression of protein following SC injection of encapsulated mRNA ([3]; C57)
CCCCCCCCCCCCC(CCOC(=O)CCCCC(OCCCCCCCC)OCCCCCCCC)OC(=O)OCCCN(CC)CC (stereo not shown) [Example 16, 3-(((3-(diethylamino)propoxy)carbonyl)oxy)pentadecyl 6,6-bis(octyloxy)hexanoate]	88.9%	88.9%	21.4 ng/mL	8.4 ng/mL	–	–
CCCCCCCCCCCCC(CCOC(=O)CCCCC(OCC(CC)CCCC)OCC(CC)CCCC)OC(=O)OCCCN(CC)CC (stereo not shown) [Example 18, 3-(((3-(diethylamino)propoxy)carbonyl)oxy)pentadecyl 6,6-bis((2-ethylhexyl)oxy)hexanoate]	–	91.2%	–	–	–	–
CCCCC/C=C\C/C=C\CCCCCCCCC(CCC(=O)OC(COC(=O)CCCCCCC)COC(=O)CCCCCCC)OC(=O)OCCCN(C)C (stereo not shown) [Example 94, 2-(((13Z,16Z)-4-(((3-(dimethylamino)propoxy)carbonyl)oxy)docosa-13,16-dienoyl)oxy)propane-1,3-diyl dioctanoate]	74.8%	74.8%	–	–	–	–
CCCCCCCCCC(=O)OCCC(CC(CCCCCCCC)CCCCCCCC)OC(=O)OCCCN(C)C (stereo not shown) [Example 70, 3-(((3-(dimethylamino)propoxy)carbonyl)oxy)-5-octyltridecyl decanoate]	–	80.0%	–	–	–	–
CCCCCCCCCCCCC(CCOC(=O)CCCCC(COC(=O)CCCCCCC)COC(=O)CCCCCCC)OC(=O)OCCCN(CC)CC (stereo not shown) [Example 1, 2-(10-dodecyl-3-ethyl-8,14-dioxo-7,9,13-trioxa-3-azaoctadecan-18-yl)propane-1,3-diyl dioctanoate]	–	–	–	16.2 ng/mL	66.3 ng/mL	1.2 ng/mL
CCCCC/C=C\C/C=C\CCCCCCCC(=O)OCC(COC(=O)CCCCCCC/C=C\C/C=C\CCCCC)OC(=O)CCC(CCCCCCCCCCCC)OC(=O)OCCCN(C)C (stereo not shown) [Example 80, (9Z,9′Z,12Z,12′Z)-2-((4-(((3-(dimethylamino)propoxy)carbonyl)oxy)hexadecanoyl)oxy)propane-1,3-diyl bis(octadeca-9,12-dienoate)]	85.2%	85.2%	–	–	–	–
